Test: Antagonist activity at rabbit PAF receptor assessed as inhibition of PAF-induced platelet aggregation incubated for 5 mins followed by PAF addition
Conditions: Oryctolagus cuniculus

Row | IC50 | SMILES
1 | 230 nM | C=CC[C@H]1C[C@]2(OC)C(=C(OC)C1=O)O[C@@H](c1cc(OC)c(OC)c(OC)c1)[C@@H]2C
2 | 390 nM | C=CC[C@H]1C[C@]2(OC)C(=C(OC)C1=O)O[C@@H](c1cc(OC)c3c(c1)OCO3)[C@@H]2C
3 | 1090 nM | C=CCC1=C[C@]2(OC)[C@H](C)[C@@H](c3cc(OC)c4c(c3)OCO4)[C@](OC)(C1=O)[C@H]2O [CINERIN C]
4 | 930 nM | C[C@@H]1C(=O)O[C@H]2[C@H](O)[C@@]34[C@H]5C[C@@H](C(C)(C)C)[C@]36[C@@H](OC(=O)[C@@H]6O)O[C@@]4(C(=O)O5)[C@@]12O [GINKOLIDE B]
5 | 150 nM | C=CCC1=C[C@@]2(OC)C(=CC1=O)O[C@H](c1ccc(OC)c(OC)c1)[C@H]2C [KADSURENONE]
